Read-outs that look alike come from different tables or passages of the source.
Assays:
cancer = settings: monotherapy and in combination with atezolizumab, preliminary data, cited from earlier work
Adenosine A2b receptor = target: T1, Adenosine A2b receptor (Homo sapiens, UniProt P29275); test: Adenosine receptor TR-FRET binding assay, A2b; settings: Table 9, further testing; displacement of 30 nM CA200645, CHO cell membranes
T1 construct: expressed in transfected cells; host or cells: CHO cell membranes
T1 sequence (P29275 1-332): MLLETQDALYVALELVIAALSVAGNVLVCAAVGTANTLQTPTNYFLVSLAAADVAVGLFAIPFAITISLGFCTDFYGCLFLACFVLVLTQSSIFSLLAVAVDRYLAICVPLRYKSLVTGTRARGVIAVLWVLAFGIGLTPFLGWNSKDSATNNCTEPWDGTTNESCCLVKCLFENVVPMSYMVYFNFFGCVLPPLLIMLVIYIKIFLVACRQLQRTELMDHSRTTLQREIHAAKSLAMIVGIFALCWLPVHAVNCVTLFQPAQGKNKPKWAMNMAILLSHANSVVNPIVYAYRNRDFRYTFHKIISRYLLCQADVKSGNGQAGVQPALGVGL
Outline: (§1)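 Competition TR-FRET binding in CHO cell membranes expressing terbium-labelled human receptors, displacing fluorescent XAC (CA200645; 30 nM for A2b, 100 nM for A1, A2a, A3); 2 h at room temperature with saponin buffer, 1% DMSO. 665/620 nm ratio; non-specific with 10 μM XAC; Ki by Cheng–Prusoff from IC50.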

Adenosine A2a receptor = target: T2, Adenosine A2a receptor (Homo sapiens, UniProt P29274); test: Adenosine receptor TR-FRET binding assay, A2a; settings: displacement of 100 nM CA200645, CHO cell membranes
T2 construct: expressed in transfected cells; host or cells: CHO cell membranes
T2 sequence (P29274 whole entry): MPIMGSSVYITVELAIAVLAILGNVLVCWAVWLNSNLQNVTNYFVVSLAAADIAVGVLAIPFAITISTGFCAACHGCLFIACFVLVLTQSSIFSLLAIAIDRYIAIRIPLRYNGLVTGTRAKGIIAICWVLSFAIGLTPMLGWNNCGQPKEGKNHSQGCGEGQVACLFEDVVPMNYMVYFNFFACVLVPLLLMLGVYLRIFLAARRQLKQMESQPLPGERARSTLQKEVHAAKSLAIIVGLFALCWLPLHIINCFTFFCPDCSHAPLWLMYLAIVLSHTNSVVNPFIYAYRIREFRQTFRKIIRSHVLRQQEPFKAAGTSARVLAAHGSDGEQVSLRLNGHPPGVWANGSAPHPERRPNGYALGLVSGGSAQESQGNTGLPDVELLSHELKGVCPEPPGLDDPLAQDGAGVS
Outline: as §1

Human PBMCs = test: CD3/CD28 stimulated IL-2 release NECA reversal assay; type: cell-based
Protocol: Blood is drawn from healthy volunteers using sodium citrate as the anticoagulant (0.3% final concentration). […] 50 μl diluted compound mix is added to the cells, to obtain final concentrations of 1 ug/ml CD28 antibody, 1 uM NECA and 0.003-10 μM adenosine receptor antagonist. Assay plates are incubated for 24 hours at 37° C. in a humidified incubator.

Human Whole Blood = test: LPS stimulated TNF-alpha release NECA reversal assay; type: cell-based; settings: 5 hours
Protocol: Blood is drawn from healthy volunteers using sodium citrate (0.3% final concentration) or heparin (19.5 U/ml) as the anticoagulant. A 15 minute incubation may be given with adenosine deaminase (2 u/ml) prior to plating the blood into assay plates, as indicated. 20 μl diluted compound mix containing LPS, NECA and adenosine receptor antagonist diluted in RPMI medium is added to U-bottom cell culture plates. 180 μl anticoagulated blood is added. Assay plates are incubated for 5 hours at 37° C. in a humidified incubator. Plasma obtained by centrifugation at 2000 rpm/10 mins is tested for TNF alpha levels using the human TNF alpha Tissue Culture Kit (Meso Scale Discovery). For bar charts, data is expressed as raw counts from a Mesoscale Sector Imager 6000.

Adenosine A3 receptor = target: T3, Adenosine A3 receptor (Homo sapiens, UniProt P0DMS8); test: Adenosine receptor TR-FRET binding assay, A3; settings: Table 9, further testing; displacement of 100 nM CA200645, CHO cell membranes; read-out: A3 Ki
T3 construct: expressed in transfected cells; host or cells: CHO cell membranes
T3 sequence (P0DMS8 1-318): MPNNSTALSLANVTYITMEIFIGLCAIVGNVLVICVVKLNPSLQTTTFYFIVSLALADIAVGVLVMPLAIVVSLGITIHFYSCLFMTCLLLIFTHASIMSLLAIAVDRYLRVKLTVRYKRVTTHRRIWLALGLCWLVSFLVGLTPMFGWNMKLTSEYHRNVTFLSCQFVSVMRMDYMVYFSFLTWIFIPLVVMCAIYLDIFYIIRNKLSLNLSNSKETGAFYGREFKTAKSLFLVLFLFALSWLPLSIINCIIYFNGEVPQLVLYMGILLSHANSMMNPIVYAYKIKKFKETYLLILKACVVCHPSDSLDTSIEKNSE
Outline: as §1

Adenosine A1 receptor = target: T4, Adenosine A1 receptor (Homo sapiens, UniProt P30542); test: Adenosine receptor TR-FRET binding assay, A1; settings: Table 9, further testing; displacement of 100 nM CA200645, CHO cell membranes
T4 construct: expressed in transfected cells; host or cells: CHO cell membranes
T4 sequence (P30542 1-326): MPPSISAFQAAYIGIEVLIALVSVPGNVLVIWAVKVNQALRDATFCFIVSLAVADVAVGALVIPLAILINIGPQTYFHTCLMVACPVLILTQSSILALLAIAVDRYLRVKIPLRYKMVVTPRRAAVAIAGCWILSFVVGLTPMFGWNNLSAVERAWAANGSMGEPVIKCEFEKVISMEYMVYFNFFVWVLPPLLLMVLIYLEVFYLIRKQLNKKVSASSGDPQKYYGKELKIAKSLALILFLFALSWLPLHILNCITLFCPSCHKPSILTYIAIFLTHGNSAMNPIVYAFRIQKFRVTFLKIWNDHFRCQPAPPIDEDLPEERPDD
Outline: as §1

[1] = tested on: CD8+T Cells in Human Whole Blood; test: Measurement of pCREB in CD8+ T cells; type: cell-based; settings: T-cell, 1 h; heparinised human whole blood, rolipram, 3 μM NECA, 60 min, FACS
Protocol: Heparinised human whole blood was pre-incubated at 37° C. with serial dilutions of A2a antagonists for 20 min. and the phosphodiesterase inhibitor rolipram to amplify the pCREB response. The adenosine receptor agonist NECA is then added at a final concentration of 3 μM and following a 60 min incubation the blood is fixed and red blood cells lysed. White blood cells are isolated, permeabilized and stained with directly conjugated fluorescent antibodies to phospho-CREB (Alexa Fluor 488) and CD8 (Alexa Fluor 647) and the level of phospho-CREB in CD8+ T cells is measured by FACS using a BD Accuri C6 Flow Cytometer.

[2] = Homo sapiens, PBMC, read-out: IL-2 release NECA reversal IC50 (nM), 1 uM NECA, 24 hours

Cc1ccc(-c2nc(N)nc3c2nnn3Cc2cccc(CO[C@H]3CCOC3)n2)o1 [CPI-444]
CD8+T infiltration into tumour tissue (cancer; early indications): enhancing CD8^+T infiltration into tumour tissue | tumour size (cancer; early indications): reducing tumour size | tolerability (cancer): well tolerated

Cc1cccnc1CNC(=O)c1cnc(-c2ccco2)nc1N [Example 3, 4-Amino-2-(2-furyl)-N-[(3-methyl-2-pyridyl)methyl]pyrimidine-5-carboxamide]
Ki (Adenosine A2b receptor): 440 nM | Ki (Adenosine A2a receptor; Table 8, Cheng and Prusoff): 1.7 nM | Ki (Adenosine A2a receptor; Table 9, further testing): 3.3 nM | IC50 (Human PBMCs; read-out: IL-2 release NECA reversal IC50, 1 uM NECA, 24 hours): 77 nM | IC50 (Human Whole Blood): 2290 nM | Ki (Adenosine A3 receptor): 908 nM | Ki (Adenosine A1 receptor): 1720 nM | IC50 [1]: 1210 nM

COc1nc(-c2ccco2)nc(N)c1C(=O)NCc1c(Cl)cccc1Cl [Example 18.3, 4-Amino-N-[(2,6-dichlorophenyl)methyl]-2-(2-furyl)-6-methoxy-pyrimidine-5-carboxamide]
Ki (Adenosine A2b receptor): 5.4 nM | Ki (Adenosine A2a receptor; Table 9, further testing): 0.078 nM | IC50 (Human PBMCs; [2]): 5 nM | IC50 (Human Whole Blood): 476 nM | Ki (Adenosine A3 receptor): 194 nM | Ki (Adenosine A1 receptor): 18 nM | IC50 [1]: 17 nM

Cc1cccnc1CNC(=O)c1c(N)nc(-c2ccco2)nc1OC[C@H](C)O [Example 20.11, 4-Amino-2-(2-furyl)-6-[(2S)-2-hydroxypropoxy]-N-[(3-methyl-2-pyridyl)methyl]pyrimidine-5-carboxamide]
Ki (Adenosine A2b receptor): 80 nM | Ki (Adenosine A2a receptor; Table 9, further testing): 0.11 nM | IC50 (Human PBMCs; [2]): 9 nM | IC50 (Human Whole Blood): 221 nM | Ki (Adenosine A3 receptor): 11 nM | Ki (Adenosine A1 receptor): 1.7 nM | IC50 [1]: 42 nM

Cc1cccnc1CNC(=O)c1c(N)nc(-c2ccco2)nc1OC[C@@H](C)O [Example 20.13, 4-Amino-2-(2-furyl)-6-[(2R)-2-hydroxypropoxy]-N-[(3-methyl-2-pyridyl)methyl]pyrimidine-5-carboxamide]
Ki (Adenosine A2b receptor): 611 nM | Ki (Adenosine A2a receptor; Table 9, further testing): 0.099 nM | IC50 (Human PBMCs; [2]): 19 nM | Ki (Adenosine A3 receptor): 14 nM | Ki (Adenosine A1 receptor): 9 nM

CC(O)CCNC(=O)c1c(N)nc(-c2cccc(C#N)c2)nc1OCCF (centres unmarked) [Example 24.6, 4-Amino-2-(3-cyanophenyl)-6-(2-fluoroethoxy)-N-(3-hydroxybutyl)pyrimidine-5-carboxamide]
Ki (Adenosine A2b receptor): 1070 nM | Ki (Adenosine A2a receptor; Table 9, further testing): 7 nM | IC50 (Human PBMCs; [2]): 207 nM | Ki (Adenosine A3 receptor): 2220 nM | Ki (Adenosine A1 receptor): 629 nM

Cc1cccnc1CNC(=O)c1c(N)nc(-c2ncco2)nc1OCCF [Example 25, 4-Amino-6-(2-fluoroethoxy)-N-[(3-methyl-2-pyridyl)methyl]-2-oxazol-2-yl-pyrimidine-5-carboxamide]
Ki (Adenosine A2b receptor): 77 nM | Ki (Adenosine A2a receptor; Table 9, further testing): 1.3 nM | IC50 (Human PBMCs; [2]): 11 nM | Ki (Adenosine A3 receptor): 62 nM | Ki (Adenosine A1 receptor): 260 nM | IC50 [1]: 106 nM

From patent publication US20200339548A1, “PYRIMIDINE DERIVATIVES AND THEIR USE FOR THE TREATMENT OF CANCER” (Adorx Therapeutics Limited, priority 2017, published 2020)
